Measured values published in patent US20100279941A1, “CD36 MODULATION AND USES THEREOF” (priority 2009, published 2010).

How the values were obtained:
[1] = tested on: Akt; test: Western blot of left ventricle: phosphorylated Akt to total Akt; assay type: in vivo, mice
Experimental: (§1) Experimental model of IHD: Transient left coronary artery ligation in vivo. Mice were subjected to a transient LCAL surgery as described before, with minor modifications [Tarnayski et al., 2004]. Mice were injected i.p. with buprenorphine (0.05 mg/kg) and placed in an induction chamber with inhalation anesthesia comprised of 3% isoflurane mixed with 100% oxygen. Mice were intubated with a blunt ended 20-gauge catheter into the trachea via the mouth and mechanically ventilated at a tidal volume of 7 ml/kg at 130 respirations/min with a MiniVent™ mouse ventilator (model 845, Harvard Apparatus, Saint-Laurent, QC, Canada). Anesthesia was maintained with 1.5-2% isoflurane and the animals were kept warm using electrical heating pads during the surgical procedure. The chest was opened by a horizontal incision through the skin and muscle layers at the third intercostal space exposing the left side of the heart. […] Visual blanching distal to the coronary occlusion confirmed myocardial ischaemia. Lidocaine (6 mg/kg) was administered i.p. just following occlusion and prior to reperfusion. After 30 minutes, the PE10 tubing was removed allowing reperfusion. The lungs were reinflated and the chest wound closed layer by layer before extubation. […] Hearts were immediately frozen at −80° C. unless otherwise stated.
(§2) Western blot analysis. Total ventricular protein lysates were prepared as described previously [Bodart et al., 2002]. Left ventricles were homogenized in PBS containing a protease inhibitor cocktail (Roche Applied Science, Indianapolis, Ind., USA) and 1 mM sodium orthovanadate. Homogenates were incubated for 10 min on ice with an equal volume of lysis buffer (NaCl 300 mM, Tris-HCl 100 mM, 2% Triton X-100, 0.2% SDS, 50 mM NaF, 4 mM EDTA, 1 mM sodium orthovanadate and protein inhibitors, pH=7.5), and centrifuged at 14,000 g for 30 minutes at 4° C. The protein concentration of the su pernatant was determined by the bicinchoninic acid (BCA) protein assay (Pierce Biotechnology, Rockford, Ill., USA). Equal amounts (50 or 100 μg) of protein extracts were separated on 10% SDS-polyacrylamide gels and transferred electrophoretically to polyvinylidene difluoride (PVDF) membranes (Bio-Rad Laboratories, Hercules, Calif., USA) for immunoblotting. […] Antibody binding was detected by enhanced chemiluminescence using an alpha Imager™ (Alpha Innotech Corporation, San Leandro, Calif., USA). Quantification of the digital images obtained was performed using ImageQuant™ 5.2 software (Molecular Dynamics, Sunnyvale, Calif., USA).

[2] = tested on: AMPK; test: Western blot of left ventricle: phosphorylated AMPK to total AMPK; assay type: in vivo, mice
Experimental: as §1, §2

[3] = tested on: C57BL/6 mice; test: Cardiac troponin I (cTnI) in plasma, ELISA; assay type: in vivo; details: 48 hours post-ischemia; 2 weeks 289 nmol/kg; compared to vehicle
Experimental: C57BU6 mice were bred in house. Male mice, aged 23 (±1) weeks, were used for experiments. They were fed standard chow (#5075, Charles Rivers, Saint-Constant, Québec, Canada) and water ad libitum, and housed singly during treatment periods (2 weeks). Daily pharmacological treatments with 300 μg/kg (289 nmol/kg) of EP 80317 or 289 nmol/kg of CP-3(IV), 289 nmol/kg of CP-AP-4 or vehicle (0.9% NaCl) were done by subcutaneous (s.c.) injections.
as §1
Cardiac troponin I (cTnI) concentrations in plasma. cTnI plasma levels were assayed using the High Sensitivity Mouse Cardiac Troponin-I ELISA Kit (Life Diagnostics, Inc., West Chester, Pa., Cat. No. 2010-1-HSP), according to the manufacturer's instructions.

[4] = 6 hours reperfusion, CD36^+/+ mice, p<0.01
[5] = 6 hours reperfusion, CD36^−/− mice, in words
[6] = 48 hours reperfusion, genotype not printed in the sentence (FIG. 7D), in words

Substance: HAIC-2MeDTrp-DLys-Trp-DPhe-Lys-NH2 [EP 80317]
- increase of P-Akt to total Akt band density ratio [1, 4]: 57%
- effect on P-Akt/Akt ratio [1, 5]: no effect
- increase of P-Akt/Akt density ratio ([1]; 48 hours reperfusion, CD36^+/+ mice, p<0.01): 89%
- effect on Akt phosphoprotein signal [1, 6]: no significant effect
- increase of P-AMPK to total AMPK band density ratio [2, 4]: 121%
- effect on P-AMPK/AMPK ratio [2, 5]: no effect
- P-AMPK/AMPK density ratio ([2]; 48 hours reperfusion, CD36^+/+ mice, in words): tended to decrease
- effect on AMPK phosphoprotein signal [2, 6]: no significant effect
- reduction of cardiac troponin I (cTnI) levels in plasma [3]: 60%
